In patent US20080293587A1, “Method of Screening a Biological Target for Weak Interactions Using Weak Affinity Chromatography” (Transientic Interactions AB, priority 2005, published 2008):

Target: bovine serum albumin (BSA) (Bos taurus, UniProt P02769)
Conditions: bupivacain 1 mM; for retardation in zonal weak affinity chromatography in a well (peak apex): immobilized BSA, mobile phase 0.05 M sodium phosphate buffer pH 7.0, 20° C., UV 230 nm, propranolol 0.25 mM, sodium azide 0.5 mM
Protocol: 200 mg of reference gel (diol-silica) and assay gel (BSA-diol-silica) were suspended in 1 ml methanol and packed into each well in a 96-well filtering system (Captiva® 96-well 10μ glassfiber filter plate from Ansys Technologies (Company), see FIG. 1) using vacuum applied to the wells. The gel in the wells was first washed with 5 ml MeOH and then with 5 ml 0.1 M sodium phosphate buffer pH 7.0. Filter discs were placed on top of the gel material in each well.
Wells containing gel materials were washed carefully with 0.05 M sodium phosphate buffer pH 7.0 using vacuum collar to remove non-bound BSA, contaminants and entrapped air. The excess of buffer was gently removed from the surface of the wells using pipette and 10 μl of test substances were injected centrally in each wells which were then flushed with mobile phase (0.05 M sodium phosphate buffer pH 7.0). Vacuum was applied to the collar and the mobile phase was flowed into a 96 well collection plate (Nunclon, Nalgene-Nunc) within 8-10 seconds. Vacuum was then reduced and the collection plate (approximately 0.2 ml in each well) was replaced with a new one. This fraction collection process was repeated with 20-75 plates. During this procedure the wells were eluted with mobile phase continuously. […] The eluates in the plates were transferred carefully by automatic pipettes and weighed to estimate the retention volume. All procedures were performed at room temperature (20° C.). Eluted substances were detected by UV-scans at 230 nm. Chromatograms were obtained by plotting UV absorbance versus fraction volume.

Chain of bovine serum albumin (BSA) (P02769 25-607): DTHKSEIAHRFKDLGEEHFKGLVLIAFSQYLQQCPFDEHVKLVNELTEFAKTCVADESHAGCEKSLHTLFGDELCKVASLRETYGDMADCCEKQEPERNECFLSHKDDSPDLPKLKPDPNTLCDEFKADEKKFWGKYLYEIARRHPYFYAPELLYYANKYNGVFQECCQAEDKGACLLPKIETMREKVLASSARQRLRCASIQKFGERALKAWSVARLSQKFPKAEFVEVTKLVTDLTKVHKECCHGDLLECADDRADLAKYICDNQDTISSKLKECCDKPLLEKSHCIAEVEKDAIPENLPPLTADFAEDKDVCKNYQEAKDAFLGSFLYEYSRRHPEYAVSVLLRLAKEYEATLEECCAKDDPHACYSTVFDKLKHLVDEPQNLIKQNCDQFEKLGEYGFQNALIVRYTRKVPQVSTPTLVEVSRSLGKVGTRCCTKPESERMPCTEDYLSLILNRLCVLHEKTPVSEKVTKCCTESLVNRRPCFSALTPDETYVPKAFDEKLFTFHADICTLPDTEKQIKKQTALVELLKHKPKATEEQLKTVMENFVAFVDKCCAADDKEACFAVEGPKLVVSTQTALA

Row | SMILES | well-to-well reproducibility of retardation in zonal weak affinity chromatography (three different wells, chromatography repeated once in each well) | retardation in zonal weak affinity chromatography in a well (peak apex)
1 | CCCCN1CCCCC1C(=O)Nc1c(C)cccc1C (stereo not drawn) [Bupivacain] | retarded | retarded
2 | CC(C)NCC(O)COc1cccc2ccccc12 (stereo not drawn) [propranolol] | – | retarded
